Values quoted from earlier work, collected in PubChem BioAssay AID1259409 (Chemical Carcinogenesis Research Information System (CCRIS), 2018).

Test system: rodent chemically induced tumor inhibition, incidence and multiplicity
Test: CCRIS tumor inhibitor studies
Settings: Dose [Inhibitor]: 0

For `COc1cc(CNC(=O)CCCC/C=C/C(C)C)ccc1O`, the “tumour outcome (control, treated, inhibition, significance)” value (Carcinogen: 7,12-DIMETHYLBENZ[A]ANTHRACENE, 57-97-6, 0.01% IN DIET BEGINNING 3 WK POST CARCINOGEN DOSE AND CONTINUING FOR 6 WK (STUDY DURATION: 9 WK), Route [Inhibitor]: ORAL, Species: MOUSE, Strain/Sex: SWISS/FEMALE, Target Tissue: Type of Lesion: LUNG: ADENOMA, Dose [Carcinogen]: 40 UG ONCE ADMINISTERED TO NEWBORN MICE, Promoter: NONE USED) is given as 17/17 (100%), 20/22 (91%), 9%, not calculated, the “tumour outcome (control, treated, inhibition, significance)” value (Carcinogen: 7,12-DIMETHYLBENZ[A]ANTHRACENE, 57-97-6, 0.01% IN DIET BEGINNING 3 WK POST CARCINOGEN DOSE AND CONTINUING FOR 6 WK (STUDY DURATION: 9 WK), Route [Inhibitor]: ORAL, Species: MOUSE, Strain/Sex: SWISS/MALE, Target Tissue: Type of Lesion: LUNG: ADENOMA, Dose [Carcinogen]: 40 UG ONCE ADMINISTERED TO NEWBORN MICE, Promoter: NONE USED) is given as 10/10 (100%), 23/24 (96%), 4%, not calculated and the “tumour outcome (control, treated, inhibition, significance)” value (Carcinogen: AZOXYMETHANE (25843-45-2), 500 PPM IN DIET FOR 4 WK, BEGINNING 1 WK BEFORE THE FIRST CARCINOGEN DOSE (STUDY DURATION: 38 WK), Route [Inhibitor]: ORAL, Species: RAT, Strain/Sex: F344/MALE, Target Tissue: Type of Lesion: LARGE INTESTINE: ADENOCARCINOMA, Dose [Carcinogen]: 15 MG/KG BW 1 INJECTION/WK FOR 3 WK, Promoter: NONE USED) is given as 9/15 (60%), 4/17 (24%), 60%, p = 0.0407. For the same compound, the “tumour outcome (control, treated, inhibition, significance)” value (Carcinogen: AZOXYMETHANE (25843-45-2), 500 PPM IN DIET FOR 4 WK, BEGINNING 1 WK BEFORE THE FIRST CARCINOGEN DOSE (STUDY DURATION: 38 WK), Route [Inhibitor]: ORAL, Species: RAT, Strain/Sex: F344/MALE, Target Tissue: Type of Lesion: LARGE INTESTINE: ADENOMA, Dose [Carcinogen]: 15 MG/KG BW 1 INJECTIONS/WK FOR 3 WK, Promoter: NONE USED) was 4/15 (27%), 1/17 (6%), 78%, not significant, the “tumour outcome (control, treated, inhibition, significance)” value (Carcinogen: AZOXYMETHANE (25843-45-2), 500 PPM IN DIET FOR 4 WK, BEGINNING 1 WK BEFORE THE FIRST CARCINOGEN DOSE (STUDY DURATION: 38 WK), Route [Inhibitor]: ORAL, Species: RAT, Strain/Sex: F344/MALE, Target Tissue: Type of Lesion: SMALL INTESTINE: ADENOCARCINOMA, Dose [Carcinogen]: 15 MG/KG BW 1 INJECTION/WK FOR 3 WK, Promoter: NONE USED) was 4/15 (27%), 3/17 (18%), 33%, not significant and the “tumour outcome (control, treated, inhibition, significance)” value (Carcinogen: AZOXYMETHANE (25843-45-2), 500 PPM IN DIET FOR 4 WK, BEGINNING 1 WK BEFORE THE FIRST CARCINOGEN DOSE (STUDY DURATION: 38 WK), Route [Inhibitor]: ORAL, Species: RAT, Strain/Sex: F344/MALE, Target Tissue: Type of Lesion: SMALL INTESTINE: ADENOMA, Dose [Carcinogen]: 15 MG/KG BW 1 INJECTION/WK FOR 3 WK, Promoter: NONE USED) was 1/15 (7%), 0/17 (0%), 100%, not significant. For the same compound, the “tumour outcome (control, treated, inhibition, significance)” value (Carcinogen: AZOXYMETHANE (25843-45-2), 500 PPM IN DIET FOR 34 WK, BEGINNING 1 WK AFTER THE LAST CARCINOGEN DOSE (STUDY DURATION: 38 WK), Route [Inhibitor]: ORAL, Species: RAT, Strain/Sex: F344/MALE, Target Tissue: Type of Lesion: LARGE INTESTINE: ADENOCARCINOMA, Dose [Carcinogen]: 15 MG/KG BW 1 INJECTION/WK FOR 3 WK, Promoter: NONE USED) was 9/15 (60%), 6/14 (43%), 28%, not significant, the “tumour outcome (control, treated, inhibition, significance)” value (Carcinogen: AZOXYMETHANE (25843-45-2), 500 PPM IN DIET FOR 34 WK, BEGINNING 1 WK AFTER THE LAST CARCINOGEN DOSE (STUDY DURATION: 38 WK), Route [Inhibitor]: ORAL, Species: RAT, Strain/Sex: F344/MALE, Target Tissue: Type of Lesion: LARGE INTESTINE: ADENOMA, Dose [Carcinogen]: 15 MG/KG BW 1 INJECTION/WK FOR 3 WK, Promoter: NONE USED) was 4/15 (27%), 2/14 (14%), 48%, not significant and the “tumour outcome (control, treated, inhibition, significance)” value (Carcinogen: AZOXYMETHANE (25843-45-2), 500 PPM IN DIET FOR 34 WK, BEGINNING 1 WK AFTER THE LAST CARCINOGEN DOSE (STUDY DURATION: 38 WK), Route [Inhibitor]: ORAL, Species: RAT, Strain/Sex: F344/MALE, Target Tissue: Type of Lesion: SMALL INTESTINE: ADENOCARCINOMA, Dose [Carcinogen]: 15 MG/KG BW 1 INJECTION/WK FOR 3 WK, Promoter: NONE USED) was 4/15 (27%), 3/14 (21%), 22%, not significant. The “tumour outcome (control, treated, inhibition, significance)” value (Carcinogen: AZOXYMETHANE (25843-45-2), 500 PPM IN DIET FOR 34 WK, BEGINNING 1 WK AFTER THE LAST CARCINOGEN DOSE (STUDY DURATION: 38 WK), Route [Inhibitor]: ORAL, Species: RAT, Strain/Sex: F344/MALE, Target Tissue: Type of Lesion: SMALL INTESTINE: ADENOMA, Dose [Carcinogen]: 15 MG/KG BW 1 INJECTION/WK FOR 3 WK, Promoter: NONE USED) was 1/15 (7%), 0/14 (0%), 100%, not significant, the “tumour outcome (control, treated, inhibition, significance)” value (Carcinogen: BENZO[A]PYRENE, 50-32-8, 0.01% IN DIET BEGINNING 3 WK POST CARCINOGEN DOSE AND CONTINUING FOR 6 WK (STUDY DURATION: 9 WK), Route [Inhibitor]: ORAL, Species: MOUSE, Strain/Sex: SWISS/FEMALE, Target Tissue: Type of Lesion: LUNG: ADENOMA, Dose [Carcinogen]: 1 MG ONCE ADMINISTERED TO NEWBORN MICE, Promoter: NONE USED) was 8/34 (24%), 4/30 (13%), 46%, p<0.05 and the “tumour outcome (control, treated, inhibition, significance)” value (Carcinogen: BENZO[A]PYRENE, 50-32-8, 0.01% IN DIET BEGINNING 3 WK POST CARCINOGEN DOSE AND CONTINUING FOR 6 WK (STUDY DURATION: 9 WK), Route [Inhibitor]: ORAL, Species: MOUSE, Strain/Sex: SWISS/MALE, Target Tissue: Type of Lesion: LUNG: ADENOMA, Dose [Carcinogen]: 1 MG ONCE ADMINISTERED TO NEWBORN MICE, Promoter: NONE USED) was 7/35 (20%), 3/34 (9%), 55%, p<0.01. The “tumour outcome (control, treated, inhibition, significance)” value (Carcinogen: BENZO[A]PYRENE, 50-32-8, 1 UMOL IN 0.2 ML ACETONE APPLIED 24 AND 1 HR PRIOR TO CARCINOGEN DOSE (STUDY DURATION: 22 WK), Route [Inhibitor]: DERMAL, Species: MOUSE, Strain/Sex: CD-1/FEMALE, Target Tissue: Type of Lesion: SKIN: TUMOR, Dose [Carcinogen]: 0.3 UMOL IN 0.2 ML ACETONE ONCE, Promoter: 12-O-TETRADECANOYLPHORBOL 13-ACETATE, 16561-29-8) was 84%, 68%, 19%, not significant, the “tumour outcome (control, treated, inhibition, significance)” value (Carcinogen: N-METHYLNITROSOUREA, 684-93-5, DIETHYLNITROSAMINE, 55-18-5, N,N-DIBUTYLNITROS- AMINE, 924-16-3, Carcinogen: N-METHYLNITROSOUREA, 684-93-5, DIETHYLNITROSAMINE, 55-18-5, N,N-DIBUTYLNITROS- AMINE, 924-16-3, 0.01% IN DIET FOR 16 WK BEGINNING POST LAST CARCINOGEN DOSE (STUDY DURATION: 20 WK), Route [Inhibitor]: ORAL, Species: RAT, Strain/Sex: F344/MALE, Target Tissue: Type of Lesion: LUNG: ADENOMA, Dose [Carcinogen]: 100 MG/KG DIETHYLNITROSAMINE INTRAPERITONEAL ON D 1 THEN 200 MG/KG N-METHYLNITROSOUREA ON D 2, 5, 8, 11, AND 0.05% N,N-D) was 9/16 (56%), 2/15 (13%), 77%, p<0.02 and the “tumour outcome (control, treated, inhibition, significance)” value (Carcinogen: VINYL CARBAMATE, 15805-73-9, 2.5 UMOL IN 0.2 ML ACETONE ONCE 10 MIN PRIOR TO CARCINOGEN DOSE (STUDY DURATION: 22 WK), Route [Inhibitor]: DERMAL, Species: MOUSE, Strain/Sex: ICR/FEMALE, Target Tissue: Type of Lesion: SKIN: PAPILLOMA, Dose [Carcinogen]: 5.8 UMOL IN 0.2 ML ACETONE ONCE, Promoter: 12-O-TETRADECANOYLPHORBOL 13-ACETATE, 16561-29-8) was 70%, 53%, 24%, not significant.
